From DBAASP come the findings set out here.

Values after ≈ are worked out from the molar mass of the structure shown.

Some test systems named below: Staphylococcus aureus; Pseudomonas aeruginosa; Staphylococcus aureus MR; Escherichia coli; Micrococcus luteus; Listeria innocua; Leuconostoc lactis; Bacillus cereus; Streptococcus uberis; Pasteurella multocida.
Holding throughout (test): ≥ marks a high value that may be exact or a test limit, other limits are often not marked, values filed in µg/mL are converted to µM
For test [1], the system named is Staphylococcus epidermidis.
Test [2] deals with Candida albicans ATCC 2002.
For test [3], the system named is Pseudomonas aeruginosa CMCCB 10104.
Test [4] concerns Staphylococcus aureus ATCC 25923.
The subject of test [5] is Escherichia coli ATCC 25922.

Consider `CC[C@H](C)[C@H](NC(=O)[C@H](C)NC(=O)[C@H](CC(C)C)NC(=O)[C@H](CS)NC(=O)[C@H](Cc1cnc[nH]1)NC(=O)[C@H](C)N)C(=O)NCC(=O)N[C@@H](CCCN=C(N)N)C(=O)N[C@@H](CCCCN)C(N)=O` [AHCLAIGRK], for which the MIC (usually the lowest concentration that inhibits growth of the organism) in the test with Staphylococcus aureus is 25.8 µM; in the test with Pseudomonas aeruginosa, more than 51.6 µM; in the test on Staphylococcus aureus MR, not below 51.6 µM; in the test with Escherichia coli, 25.8 µM.
In the case of `CC[C@H](C)[C@H](NC(=O)[C@@H](NC(=O)CNC(=O)[C@@H](NC(=O)[C@@H](NC(=O)[C@H](Cc1cnc[nH]1)NC(=O)[C@@H]1CCCN1C(=O)[C@H](CC(C)C)NC(=O)[C@@H](NC(=O)[C@H](Cc1cnc[nH]1)NC(=O)[C@H](CCCCN)NC(=O)[C@H](C)NC(=O)[C@@H](NC(=O)[C@H](CO)NC(=O)CNC(=O)[C@H](CC(C)C)NC(=O)[C@@H](NC(=O)[C@H](CO)NC(=O)[C@H](CC(C)C)NC(=O)[C@H](CC(C)C)NC(=O)CN)C(C)C)C(C)C)C(C)C)C(C)C)C(C)C)C(C)C)C(=O)N[C@@H](C)C(=O)N[C@@H](CCC(=O)O)C(=O)N[C@@H](Cc1cnc[nH]1)C(=O)N[C@@H](CC(C)C)C(N)=O` [GLLSVLGSVAKHVLPHVVGVIAEHL], the MIC against Micrococcus luteus is 4.91 µM (≈ 12.5 µg/mL); against Staphylococcus aureus, 9.82 µM (≈ 25 µg/mL); against Listeria innocua, 9.82 µM (≈ 25 µg/mL); in the test with Escherichia coli, more than 39.3 µM; in test [1], not below 39.3 µM; in the test on Leuconostoc lactis, 4.91 µM (≈ 12.5 µg/mL). The MIC in the test on Bacillus cereus is not below 39.3 µM; with Streptococcus uberis, 9.82 µM (≈ 25 µg/mL); in the test with Pasteurella multocida, 19.6 µM (≈ 50 µg/mL).
In the case of `CC[C@H](C)[C@H](NC(=O)[C@H](CC(=O)O)NC(=O)[C@H](Cc1ccccc1)NC(=O)[C@H](CC(C)C)NC(=O)CN)C(=O)N[C@H](C(=O)N[C@@H](CCCCN)C(=O)N[C@@H](CCCCN)C(=O)N[C@H](C(=O)N[C@@H](C)C(=O)N[C@@H](CO)C(=O)N[C@H](C(=O)N[C@H](C(=O)NCC(=O)NCC(=O)N[C@@H](CC(C)C)C(N)=O)C(C)C)C(C)C)C(C)C)[C@@H](C)CC` [GLFDIIKKVASVVGGL], the MIC with Micrococcus luteus is 7.43 µM (≈ 12 µg/mL); against Staphylococcus aureus, 15.5 µM (≈ 25 µg/mL); against Listeria innocua, not below 61.9 µM; against Escherichia coli, more than 61.9 µM; in test [1], 15.5 µM (≈ 25 µg/mL); in the test on Leuconostoc lactis, 1.86 µM (≈ 3 µg/mL). In addition, the MIC against Bacillus cereus is 15.5 µM (≈ 25 µg/mL); against Streptococcus uberis it was 7.43 µM (≈ 12 µg/mL); against Pasteurella multocida, not below 61.9 µM.
In the case of `CC[C@H](C)[C@H](NC(=O)CNC(=O)[C@H](CCCCN)NC(=O)CNC(=O)[C@H](C)NC(=O)[C@H](Cc1ccccc1)NC(=O)[C@H](CCCCN)NC(=O)[C@H](CO)NC(=O)[C@H](Cc1ccccc1)NC(=O)[C@H](CC(C)C)NC(=O)CN)C(=O)N[C@@H](CCCCN)C(=O)N[C@@H](CC(N)=O)C(=O)N[C@@H](Cc1ccccc1)C(=O)N[C@@H](CC(C)C)C(=O)N[C@@H](CC(N)=O)C(=O)N[C@@H](CCCCN)C(=O)NCC(=O)N[C@H](C(=O)N[C@@H](CCCCN)C(=O)N[C@@H](Cc1cnc[nH]1)C(=O)N[C@H](C(=O)NCC(=O)N[C@@H](CCCCN)C(=O)N[C@@H](CCC(=O)O)C(=O)O)[C@@H](C)CC)C(C)C` [GLFSKFAGKGIKNFLNKGVKHIGKE], the minimal inhibitory concentration (MIC) in test [2] was 0.773 µM (≈ 2.1 µg/mL); in test [3], 0.773 µM (≈ 2.1 µg/mL); in test [4], 1.55 µM (≈ 4.2 µg/mL); in test [5] it was 1.55 µM (≈ 4.2 µg/mL).
Take `CC[C@H](C)[C@H](NC(=O)[C@H](CC(C)C)NC(=O)[C@H](CC(C)C)NC(=O)[C@H](CC(=O)O)NC(=O)[C@H](CCCCN)NC(=O)[C@@H](NC(=O)[C@@H](NC(=O)CNC(=O)[C@H](CCSC)NC(=O)[C@@H](NC(=O)[C@@H](N)CO)C(C)C)[C@@H](C)O)C(C)C)C(=O)NCC(=O)N[C@@H](C)C(=O)NCC(=O)N[C@@H](CCCCN)C(=O)N[C@@H](CO)C(=O)N[C@@H](C)C(=O)N[C@@H](C)C(=O)N[C@@H](CCC(N)=O)C(=O)N[C@@H](CO)C(=O)N[C@H](C(=O)N[C@@H](CC(C)C)C(=O)N[C@@H](CCCCN)C(=O)N[C@@H](CO)C(=O)N[C@@H](CC(C)C)C(=O)N[C@@H](CO)C(=O)N[C@H]1CSSC[C@@H](C(=O)O)NC(=O)[C@H](CC(=O)O)NC(=O)[C@H](CC(N)=O)NC(=O)[C@H](CO)NC(=O)[C@H](CC(C)C)NC(=O)[C@H](CCCCN)NC1=O)C(C)C` [SVMGTVKDLLIGAGKSAAQSVLKSLSCKLSNDC]: the MIC in test [2] stood at 0.993 µM (≈ 3.3 µg/mL); in [3] it was 1.99 µM (≈ 6.6 µg/mL); in [4], 0.993 µM (≈ 3.3 µg/mL); in [5] it was 1.99 µM (≈ 6.6 µg/mL).
As to `CC[C@H](C)[C@H](NC(=O)CN)C(=O)N[C@@H](CC(C)C)C(=O)N[C@@H](CO)C(=O)NCC(=O)N[C@H](C(=O)N[C@@H](CC(C)C)C(=O)NCC(=O)N[C@@H](CCSC)C(=O)NCC(=O)N[C@@H](CCCCN)C(=O)N[C@@H](CCCCN)C(=O)N[C@H](C(=O)N[C@H](C(=O)N[C@H]1CSSC[C@@H](C(=O)O)NC(=O)[C@H](CC(C)C)NC(=O)CNC(=O)[C@H](CCCN=C(N)N)NC(=O)[C@H](CC(C)C)NC(=O)CNC1=O)C(C)C)[C@@H](C)CC)C(C)C` [GILSGVLGMGKKIVCGLRGLC], the MIC in test [2] was 3.47 µM (≈ 7.19 µg/mL); in [3] it was 6.84 µM (≈ 14.2 µg/mL); in test [4], 1.74 µM (≈ 3.6 µg/mL); in test [5], 3.47 µM (≈ 7.19 µg/mL).
For the compound `CC(C)C[C@@H]1NC(=O)[C@H](CCCN=C(N)N)NC(=O)[C@H](CC(C)C)NC(=O)[C@H](CC(C)C)NC(=O)[C@H](Cc2c[nH]c3ccccc23)NC(=O)[C@H](C(C)C)NC(=O)[C@H](Cc2ccc(O)cc2)NC(=O)[C@H](CC(C)C)NC(=O)[C@H](C(C)C)NC(=O)[C@H](CCC(N)=O)NC(=O)[C@@H](NC(=O)[C@H](Cc2ccccc2)NC(=O)[C@H](CC(N)=O)NC(=O)[C@H](CC(N)=O)NC(=O)[C@@H](N)CCCCN)CSSC[C@@H](C(=O)N[C@@H](Cc2ccccc2)C(=O)N[C@H](C(=O)N[C@@H](CCCCN)C(=O)N[C@@H](Cc2ccccc2)C(=O)N[C@@H](CO)C(=O)N[C@@H](CCCCN)C(=O)N[C@@H](CC(=O)O)C(=O)N[C@H](C(=O)N[C@@H](CCC(=O)O)C(=O)N[C@H](C(=O)O)[C@@H](C)O)C(C)C)C(C)C)NC(=O)[C@H](CCC(N)=O)NC(=O)[C@H](CCCCN)NC(=O)CNC1=O` [KNNFCQVLYVWLLRLGKQCFVKFSKDVET], the MIC in [2] was 28.5 µM (≈ 99.9 µg/mL); in [3], 28.5 µM (≈ 99.9 µg/mL); in test [4], more than 28.5 µM; in [5], more than 28.5 µM.
Consider `CC[C@H](C)[C@H](NC(=O)[C@@H](NC(=O)[C@H](C)NC(=O)[C@H](Cc1ccccc1)NC(=O)[C@H](CC(C)C)NC(=O)CN)C(C)C)C(=O)N[C@@H](CCCCN)C(=O)N[C@@H](CCCCN)C(=O)N[C@H](C(=O)N[C@@H](C)C(=O)N[C@@H](CO)C(=O)N[C@H](C(=O)N[C@H](C(=O)N[C@@H](CCCCN)C(=O)NCC(=O)N[C@@H](CC(C)C)C(N)=O)[C@@H](C)CC)C(C)C)C(C)C` [GLFAVIKKVASVIKGL], for which the MIC came to 3.65 µM (≈ 6 µg/mL) against Micrococcus luteus; 7.3 µM (≈ 12 µg/mL) with Staphylococcus aureus; 7.3 µM (≈ 12 µg/mL) with Listeria innocua; 30.4 µM (≈ 50 µg/mL) against Escherichia coli; 3.65 µM (≈ 6 µg/mL) in test [1]; 1.83 µM (≈ 3 µg/mL) in the test with Leuconostoc lactis. Moreover, the results for the MIC in the test with Bacillus cereus, against Streptococcus uberis and against Pasteurella multocida were 15.2 µM (≈ 25 µg/mL), 15.2 µM (≈ 25 µg/mL) and not below 60.9 µM, respectively.
As to `CC[C@H](C)[C@H](NC(=O)[C@@H](NC(=O)CN)C(C)C)C(=O)N[C@@H](CC(=O)O)C(=O)N[C@@H](C)C(=O)N[C@@H](C)C(=O)N[C@@H](CCCCN)C(=O)N[C@@H](CCCCN)C(=O)N[C@H](C(=O)N[C@H](C(=O)N[C@@H](CC(N)=O)C(=O)N[C@H](C(=O)N[C@@H](CC(C)C)C(=O)N[C@@H](CCCCN)C(=O)N[C@@H](CC(N)=O)C(=O)N[C@@H](CC(C)C)C(=O)N1CCC[C@H]1C(N)=O)C(C)C)C(C)C)C(C)C` [GVIDAAKKVVNVLKNLP], the MIC in the test on Micrococcus luteus is 14.1 µM (≈ 25 µg/mL); with Staphylococcus aureus, 14.1 µM (≈ 25 µg/mL); with Listeria innocua, 28.1 µM (≈ 50 µg/mL); against Escherichia coli, more than 56.2 µM; in test [1] it was 7.03 µM (≈ 12.5 µg/mL); against Leuconostoc lactis it was 1.69 µM (≈ 3 µg/mL). For the same compound, the minimal inhibitory concentration (MIC) against Bacillus cereus is 14.1 µM (≈ 25 µg/mL); against Streptococcus uberis, 7.03 µM (≈ 12.5 µg/mL); with Pasteurella multocida, not below 56.2 µM.
As to `CC[C@H](C)[C@H](NC(=O)[C@H](CO)NC(=O)CNC(=O)[C@H](C)NC(=O)[C@@H](NC(=O)[C@H](Cc1cnc[nH]1)NC(=O)CNC(=O)[C@H](C)NC(=O)[C@@H](NC(=O)[C@H](CCCCN)NC(=O)[C@H](CCCCN)NC(=O)[C@@H](NC(=O)[C@@H](NC(=O)[C@H](CC(=O)O)NC(=O)[C@H](Cc1ccccc1)NC(=O)[C@H](CC(C)C)NC(=O)CN)[C@@H](C)CC)C(C)C)[C@@H](C)CC)[C@@H](C)CC)C(N)=O` [GLFDIVKKIAGHIAGSI], the minimal inhibitory concentration (MIC) with Micrococcus luteus is not below 57.5 µM; against Staphylococcus aureus, 28.8 µM (≈ 50 µg/mL); with Listeria innocua it was not below 57.5 µM; in the test with Escherichia coli it was more than 57.5 µM; in test [1] it was not below 57.5 µM; in the test with Leuconostoc lactis, 6.9 µM (≈ 12 µg/mL). Besides, the MIC against Bacillus cereus, in the test on Streptococcus uberis and against Pasteurella multocida was not below 57.5 µM in each case.
